From US20240165093A1, “METHODS FOR TREATING FAMILIAL CHYLOMICRONEMIA SYNDROME” (AMRYT PHARMACEUTICALS INC., priority 2021, published 2024)
Where “and” joins values, the source holds several entries; their conditions need not be identical. Equal values may be shown once.

Experiments:
[1] = tested on: patients with Familial Chylomicronemia Syndrome (FCS); assay: Clinical study in FCS patients: safety and tolerability (adverse events, liver function tests, maximum dose); assay type: in vivo, human
Description: (§1) Treatment was initiated at 5 mg once daily, and the dose titrated based on acceptable safety/tolerability. After a minimum of 2 weeks at 5 mg once daily the dose was then titrated at a minimum of 4-week intervals to 10 mg, 20 mg, 40 mg, and 60 mg/day (e.g., as shown in the table below) or until an individually determined maximum dose (e.g., in the range of 5-60 mg/day) was reached based on lipid profile, and safety/tolerability. Dose adjustments were also made according to liver transaminase levels. If subjects experienced confirmed alanine aminotransferase (ALT) or aspartate aminotransferase (AST) elevations between 3-5×ULN, or >100 U/L but <200 U/L above the baseline value, the dose of lomitapide was reduced to the previously tolerated dose level, with the possibility to re-escalate dose once transaminase elevations were resolved. Once a maximum dose was established, patients remained on this dose up to Week 26.
(§2) Lipid levels and safety indices, including liver function tests, were evaluated at baseline, before each dose increase, and then every 4 weeks until week 26.
(§3) Secondary endpoints include other lipid parameters, hepatic fat and liver stiffness and Chylomicron kinetics of Lomitapide in combination with other lipid lowering agents in term of changes at 26 weeks from baseline. Including: • a) Percent change in TC, non-HDL-C, LDL-C, VLDL, Lp(a), as well as apolipoproteins B and A1. • b) Safety of Lomitapide in patients with FCS assessed by changes in laboratory parameters, electrocardiogram, physical examinations and weight. • c) Record of episodes of pancreatitis • d) Change in hepatic fat liver stiffness measured by MRI and/or Transient Elastography (Fibroscan). • e) Chylomicron kinetics.
Adverse events (AEs) were coded using MedDRA, Version 11.0. AEs were judged by the investigators as not related, unlikely, possibly, probably or definitely related to study drug and were reviewed regularly by an independent Data and Safety Monitoring Board.

[2] = tested on: patients with Familial Chylomicronemia Syndrome (FCS); assay: Clinical study of lomitapide in patients with FCS: fasting lipids, lipoproteins, pancreatitis episodes (26 weeks); assay type: in vivo
From the text: This clinical study evaluated the safety, tolerability, and efficacy of Lomitapide in patients with Familial Chylomicronemia Syndrome (FCS).
Patients were screened for eligibility between 12 to 6 weeks before the first dose of Lomitapide (screening period). After screening period, all enrolled patients entered a run-in phase of at least 6 weeks during which lipid-lowering therapy, daily dietary supplementation of vitamin E, essential fatty acids and a low-fat diet are instituted and stabilized. At the end of the run-in phase, the patients entered into a 26-week efficacy phase, during which they receive lomitapide in addition to their lipid-lowering therapy. Patients must follow a diet comprising <10% energy from fat per day during all the study.
All patients who meet the eligibility criteria, and after 6-week diet period (run-in) were treated with Lomitapide 5 mg, 10 mg, 15 mg, 20 mg, 30 mg, 40 mg, 50 mg up to 60 mg daily based on lipid profile and tolerability. Patients remain at their maximum dose until the end of 26 weeks.
as §1, §2
The Primary Endpoint was percent change in tryglycerides (TG) at the maximum tolerated dose compared to baseline after 26 weeks of treatment in combination with other lipid lowering therapy in patients with Familial Chylomicronemia Syndrome (FCS).
as §3
To enable collection of data for the primary and other endpoints a fasting lipid and safety panel, including liver function tests, was obtained at baseline, prior to each dose escalation, and every 4 weeks thereafter until Week 26. Blood was drawn at baseline and at each visit following a 12 hour fast. Testing included a standard metabolic panel, a complete blood count, urinalysis. Ten patients underwent a metabolic study to determine postprandial chylomicron metabolism and fatty acid profile. Available samples were separated by centrifugation and immediately stored at −80° C. and were shipped in dry ice at the end of the study for analysis.
Lipid and lipoprotein analyses were conducted on serum samples. Total cholesterol (TC), high density lipoprotein-cholesterol (HDL-C), and TGs were measured enzymatically. Non-HDL-C was calculated by subtracting HDL-C levels from TC levels. ApoA-I, apoB and Lp(a) were measured by immunonephelometry. […]

[3] = tested on: patients with Familial Chylomicronemia Syndrome (FCS); assay: Clinical study in FCS patients: hepatic fat (MRI), liver stiffness, NFS and FIB-4 scores; assay type: in vivo, human
From the text: as §3
Percentage hepatic fat was determined by magnetic resonance imaging (MRI) at baseline and Week 26. The MRI protocol included a dual-phase sequence and the IDEAL IQ sequence. Post-processing software, provided by the manufacturer, was used to generate fat fraction maps. A radiologist trained in abdominal imaging imaged four 1 cm^2 regions of interest (ROIs) to measure in-phase signal intensities of the liver parenchyma. ROIs were copied from the in-phase images to the opposed-phase to ensure identical size and location. Focal hepatic lesions, major branches of portal or hepatic veins, and artifacts were avoided. The mean of the signal intensity of the liver was calculated as the average value of the four signal intensities of the liver parenchyma both in the in-phase and in the opposed phase. The hepatic fat fraction was then calculated with the following formula: 100×(signal intensityIP−signal intensityOP)/(2×signal intensityIP). Finally, ROIs were also copied in the HFF Axial IDEAL IQ map to ensure identical size and location (this map was not available in one patient). The liver ROIs placed on the IDEAL-IQ fat fraction reconstruction were used to generate estimates of percentage fat.
Noninvasive quantification of liver stiffness (LSM) in kPa (estimated fibrosis score: F0 to F1: 2-7 kPa; F2: 7.5-10 kPa; F3: 10-14 kPa; F4: […]) was measured by ultrasound-based transient elastography using FibroScan® or shear wave elastography. Non-alcoholic fatty liver disease fibrosis score (NFS) and fibrosis-4 (FIB-4) score were calculated according to Angulo et al (2007) (Angulo P, Hui J M, Marchesini G, et al. The NAFLD fibrosis score: a noninvasive system that identifies liver fibrosis in patients with NAFLD. Hepatology 2007; 45(4), which is incorporated by reference herein.
Numeric parameters were expressed as median values and 97.5% confidence intervals, while dichotomous variables were expressed as proportions. Differences in numeric parameters were evaluated by the Exact Wilcoxon-Mann-Whitney Test (R CRAN “coin” package). Differences in proportions were evaluated by the Chi Square test. Percentual reductions of numeric variables at Week 26 were expressed as median values (with 97.5% confidence intervals) of the individual patients' variations from Week 0. Correlation of TG percent reduction with lomitapide dose was calculated by partial Spearman's correlation adjusting for TG baseline absolute values (R CRAN ‘ppcor’ package). All calculations were performed by the R statistical software Version 4.04 under the RStudio Version 1.3.1093 interface.

[4] = 18 subjects, baseline to Week 26

O=C(NC1CCN(CCCCC2(C(=O)NCC(F)(F)F)c3ccccc3-c3ccccc32)CC1)c1ccccc1-c1ccc(C(F)(F)F)cc1 [lomitapide, N-(2,2,2-trifluoroethyl)-9-[4-[4-[[[4′(trifluoromethyl) [1,1′-biphenyl]-2-yl]carbonyl]amino]-1-piperidinyl]butyl]-9H-fluorene-9carboxamide]
patients completing the study (26 weeks) ([1]; 18 enrolled): 100% | elevations in bilirubin or alkaline phosphatase levels ([1]; 26 weeks): No subject experienced elevations | tolerability of treatment ([1]; 26 weeks, in words): well tolerated | permanent discontinuation due to liver transaminase elevations ([1]; increases managed by dose reduction or temporary interruption): No subject discontinued treatment permanently | median lomitapide maximum dose ([1]; individually determined by lipid profile, safety and tolerability, by Week 26, 18 subjects): 35 mg/day | severity of adverse events ([1]; mostly gastrointestinal tolerability and liver enzyme elevations): mild to moderate | episodes of acute pancreatitis or severe abdominal pain during treatment ([2]; 26 weeks, all patients with history of acute pancreatitis): No patient experienced an episode of acute pancreatitis or severe abdominal pain | range of TG decrease in the six subjects with decreases up to 50% ([2]; Week 26): 18.25-49.71% | reduction in TG levels from baseline ([2]; Week 26, n=18, p<0.0001): 70.5% | patients with TG reduction >70% ([2]; Week 26, nine of 18 patients): 50% | subjects achieving TG levels <750 mg/dL (<8.5 mmol/L) ([2]; Week 26, of 18): Thirteen | subjects with decreases in TG up to 50% ([2]; Week 26, six of 18 subjects): 33.3% | patients achieving TG levels <500 mg/dL (<5.6 mmol/L) ([2]; Week 26, ten of 18): 55.6% | patients with TG reduction >50% ([2]; Week 26, twelve of 18 patients): 66.7% | mean dose when patients crossed the threshold of <500 mg/dL triglycerides ([2]; daily dose): 27 mg | mean dose when patients crossed the threshold of <750 mg/dL triglycerides ([2]; daily dose): 24 mg | mean dose when patients crossed the threshold of <1000 mg/dL triglycerides ([2]; daily dose): 18 mg | median dose when patients crossed the threshold of <500 mg/dL triglycerides ([2]; daily dose): 20 mg | median dose when patients crossed the threshold of <750 mg/dL triglycerides ([2]; daily dose): 20 mg | median dose when patients crossed the threshold of <1000 mg/dL triglycerides ([2]; daily dose): 10 mg | Lp(a) levels, difference from baseline to Week 26 ([2]; in words): No significant differences | hsCRP levels, difference from baseline to Week 26 ([2]; in words): No significant differences | fasting triglyceride levels compared to baseline ([2]; in words, over 26 weeks): significant reduction | patients achieving triglyceride plasma levels <1000 mg/dL ([2]; n=14 of 18): 77.8% | hsCRP, median at Week 26 ([2]; n=18, Week 26 (baseline 1.2)): 1.24 mg/L | Lp(a), median at Week 26 ([2]; n=18, Week 26 (baseline 6)): 5.5 nmol/L | HDL-C, median at Week 26 ([2]; n=18, Week 26 (baseline 16)): 18 mg/dL | ApoB, median at Week 26 ([2]; n=18, Week 26 (baseline 81.85)): 39.25 mg/dL | ApoA-I, median at Week 26 ([2]; n=18, Week 26 (baseline 93.7)): 74.95 mg/dL | non-HDL-C, median at Week 26 ([2]; n=18, Week 26 (baseline 184)): 90.0 mg/dL | TC, median at Week 26 ([2]; n=18, Week 26 (baseline 205.5)): 94 mg/dL | ApoA-I, median of individual changes from baseline % ([2]; n=18, baseline to Week 26): −28.1% and −23.0% | ApoB, median of individual changes from baseline % ([2]; n=18, baseline to Week 26): −43.8% | HDL-C, median of individual changes from baseline % ([2]; n=18, baseline to Week 26): 20.7% and +20.7% | Lp(a), median of individual changes from baseline % ([2]; n=18, baseline to Week 26): +40.5% | TC, median of individual changes from baseline % ([2]; n=18, baseline to Week 26): −51.7% | hsCRP, median of individual changes from baseline % ([2]; n=18, baseline to Week 26): 9.8% | non-HDL-C, median of individual changes from baseline % ([2]; n=18, baseline to Week 26): −50.0% | TG, median of individual changes from baseline % ([2]; n=18, baseline to Week 26, primary endpoint): −70.5% | TG, median at Week 26 ([2]; n=18 FCS patients, fasting, lomitapide at maximum tolerated dose plus lipid-lowering therapy, Week 26 (baseline 1803.5)): 305.0 mg/dL | Hepatic fat content on MRI, median at Week 26 ([3]; 9 subjects, Week 26 (baseline 12.0)): 32.5% | Hepatic fat content on MRI, individual change from baseline, % ([3]; 9 subjects, baseline to Week 26): +146.4% | LSM (liver stiffness measurement), median at Week 26 ([3]; 14 subjects, Week 26 (baseline 5.7)): 5.5 kPa | FIB-4, median at Week 26 ([3]; 18 subjects, Week 26 (baseline 0.76)): 1.03 | NFS, median at Week 26 ([3]; 18 subjects, Week 26 (baseline 0.786)): 0.428 | FIB-4, individual change from baseline, % [3, 4]: +38.44% | NFS, individual change from baseline, % [3, 4]: −51.69% | non-invasive liver fibrosis measurements (liver stiffness, FIB-4 and NFS scores), change ([3]; baseline to Week 26, in words): No significant changes | hepatic fat content at week 26 in 3 patients with an increase ([3]; liver MRI): 30-50%
